Active and inactive are the calls of the source. The calls are words filed in the database; no cut-off is given here.
Columns and labels:
[1] = target: T1, Phospholipid hydroperoxide glutathione peroxidase GPX4 (Homo sapiens) (UniProt P36969); assay: Induction of GPX4 degradation in human HT-1080 cells at 10 nM incubated for 24 hrs relative to control; assay type: cell-based
T1 sequence (whole entry): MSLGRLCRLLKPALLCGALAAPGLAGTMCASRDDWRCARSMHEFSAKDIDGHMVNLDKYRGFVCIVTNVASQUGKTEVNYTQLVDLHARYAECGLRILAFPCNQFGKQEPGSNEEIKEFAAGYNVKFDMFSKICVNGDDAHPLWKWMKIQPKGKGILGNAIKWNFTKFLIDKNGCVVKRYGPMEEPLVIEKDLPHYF

[2] = target: T1, Phospholipid hydroperoxide glutathione peroxidase GPX4 (Homo sapiens); assay: Induction of GPX4 degradation in human HT-1080 cells at 10 uM incubated for 24 hrs relative to control; assay type: cell-based
[3] = target: T1, Phospholipid hydroperoxide glutathione peroxidase GPX4 (Homo sapiens); assay: Induction of GPX4 degradation in human HT-1080 cells at 10 uM incubated for 24 hrs by Western blotting analysis; assay type: cell-based
[4] = target: T1, Phospholipid hydroperoxide glutathione peroxidase GPX4 (Homo sapiens); assay: Induction of GPX4 degradation in human HT-1080 cells at 0.1 to 1 uM incubated for 24 hrs; assay type: cell-based; details: dose 0.1-1 µM
HT-1080 [5] = assay: Antiproliferative activity against human HT-1080 cells at 10 uM; assay type: functional, cell-based
[6] = target: T1, Phospholipid hydroperoxide glutathione peroxidase GPX4 (Homo sapiens); assay: Induction of GPX4 degradation in human HT-1080 cells at 0.1 uM incubated for 6 hrs relative to control; assay type: cell-based
[7] = Antiproliferative activity against human HEK293T cells incubated for 24 hrs; assay type: toxicity, cell-based, HEK-293T
[8] = target: T1, Phospholipid hydroperoxide glutathione peroxidase GPX4 (Homo sapiens); assay: Induction of GPX4 degradation in human HT-1080 cells in presence of lenalidomide; assay type: cell-based
HT-1080 [9] = assay: Potency index, ratio of methyl (1S,3R)-1-(4-acetylphenyl)-2-(2-chloroacetyl)-2,3,4,9-tetrahydro-1H-pyrido[3,4-b]indole-3-carboxylate IC50 to test compound IC50 for antiproliferative activity against human HT-1080 cells; assay type: functional
HT-1080 [10] = assay: Antiproliferative activity against human HT-1080 cells incubated for 24 hrs; assay type: functional, cell-based; details: HT-1080, 24 h
HT-1080 [11] = assay: Antiproliferative activity against human HT-1080 cells at 1 uM incubated for 24 hrs in presence of liproxstatin-1; assay type: functional, cell-based
HT-1080 [12] = assay: Potency index, ratio of (4-(bis(4-chlorophenyl)methyl)piperazin-1-yl)(5-methyl-4-nitroisoxazol-3-yl)methanone IC50 to test compound IC50 for antiproliferative activity against human HT-1080 cells; assay type: functional
[13] = target: T1, Phospholipid hydroperoxide glutathione peroxidase GPX4 (Homo sapiens); assay: Induction of GPX4 degradation in human HT-1080 cells at 0.1 uM pretreated for 2 hrs followed by PYR41 addition and measured after 6 hrs; assay type: cell-based; details: time 8.0 hrs
[14] = target: T1, Phospholipid hydroperoxide glutathione peroxidase GPX4 (Homo sapiens); assay: Induction of GPX4 degradation in human HT-1080 cells at 0.0001 to 0.1 uM incubated for 1 hr by Western blotting analysis; assay type: cell-based; details: dose 0.0001-0.1 µM
[15] = target: T2, Phospholipid hydroperoxide glutathione peroxidase GPX4 (Homo sapiens, UniProt P36969); assay: Induction of GPX4 degradation in gefitinib resistant human NCI-H1650 cells incubated for 24 hrs; assay type: cell-based
T2 sequence (P36969 whole entry): T1 sequence (whole entry)

[16] = target: T1, Phospholipid hydroperoxide glutathione peroxidase GPX4 (Homo sapiens); assay: Induction of GPX4 degradation in human HT-1080 cells in presence of RSL3; assay type: cell-based
[17] = target: T1, Phospholipid hydroperoxide glutathione peroxidase GPX4 (Homo sapiens); assay: (§1) Induction of GPX4 degradation in human HT-1080 cells incubated for 6 hrs by Western blotting analysis; assay type: cell-based; details: dose 0.0001-0.1 µM
[18] = target: T2, Phospholipid hydroperoxide glutathione peroxidase GPX4; assay: as §1; assay type: cell-based
[19] = target: T1, Phospholipid hydroperoxide glutathione peroxidase GPX4 (Homo sapiens); assay: Induction of GPX4 degradation in human HT-1080 cells at 0.0001 to 0.1 uM incubated for 24 hrs by Western blotting analysis; assay type: cell-based; details: dose 0.0001-0.1 µM
[20] = target: T1, Phospholipid hydroperoxide glutathione peroxidase GPX4 (Homo sapiens); assay: Induction of GPX4 degradation in human HT-1080 cells at 0.1 uM pretreated for 2 hrs followed by MG132 and measured after 6 hrs; assay type: cell-based; details: time 8.0 hrs
[21] = target: T2, Phospholipid hydroperoxide glutathione peroxidase GPX4; assay: Induction of GPX4 degradation in human NCI-H1650 cells incubated for 24 hrs; assay type: cell-based

COC(=O)[C@H]1Cc2c([nH]c3ccccc23)[C@H](c2ccc(C(=O)N3CCC(CN4CCN(CCCCCNc5cccc6c5C(=O)N(C5CCC(=O)NC5=O)C6=O)CC4)CC3)cc2)N1C(=O)CCl (stereo partly specified)
Activity [1]: 5%

COC(=O)[C@H]1Cc2c([nH]c3ccccc23)[C@H](c2ccc(C(=O)NCc3cn(CCOCCOCCOCCOCCN[C@H](C(=O)N4C[C@H](O)C[C@H]4C(=O)N[C@@H](C)c4ccc(-c5scnc5C)cc4)C(C)(C)C)nn3)cc2)N1C(=O)CCl
Activity [2]: 12%

COC(=O)c1ccc([C@@H]2N[C@@H](C(=O)OC)Cc3c2[nH]c2ccccc32)cc1
Activity [3]: inactive

COC(=O)[C@H]1Cc2c([nH]c3ccccc23)[C@H](c2ccc(C(=O)NCc3cn(CCOCCOCCOCCOCCNc4cccc5c4C(=O)N(C4CCC(=O)NC4=O)C5=O)nn3)cc2)N1C(=O)CCl (stereo partly specified)
Activity [2]: 35%

COC(=O)[C@H]1Cc2c([nH]c3ccccc23)[C@H](c2ccc(C(=O)NCc3cn(CCOCCOCCOCCNc4cccc5c4CN(C4CCC(=O)NC4=O)C5=O)nn3)cc2)N1C(=O)CCl (stereo partly specified)
Activity [2]: inactive

COC(=O)[C@H]1Cc2c([nH]c3ccccc23)[C@H](c2ccc(C(=O)NCc3cn(CCOCCOCCOCCOCCOCCNc4cccc5c4C(=O)N(C4CCC(=O)NC4=O)C5=O)nn3)cc2)N1C(=O)CCl (stereo partly specified)
Activity [2]: 15%

COC(=O)[C@H]1Cc2c([nH]c3ccccc23)[C@H](c2ccc(C(=O)NCc3cn(CCOCCOCCOCCN[C@H](C(=O)N4C[C@H](O)C[C@H]4C(=O)N[C@@H](C)c4ccc(-c5scnc5C)cc4)C(C)(C)C)nn3)cc2)N1C(=O)CCl
Activity [4]: inactive
Activity [2]: 50%
Activity (HT-1080 [5]): Active

COC(=O)[C@H]1Cc2c([nH]c3ccccc23)[C@H](c2ccc(C(=O)N3CCC(CN4CCN(CCCCCCCCNc5cccc6c5C(=O)N(C5CCC(=O)NC5=O)C6=O)CC4)CC3)cc2)N1C(=O)CCl (stereo partly specified)
Activity [1]: 34%

COC(=O)[C@H]1Cc2c([nH]c3ccccc23)[C@H](c2ccc(C(=O)N3CCN(CCCCCCCCCCCNc4cccc5c4CN(C4CCC(=O)NC4=O)C5=O)CC3)cc2)N1C(=O)CCl (stereo partly specified)
Activity [6]: 64%

COC(=O)[C@H]1Cc2c([nH]c3ccccc23)[C@H](c2ccc(C(=O)N3CCN(CCCCCCCCCCCCCNc4cccc5c4CN(C4CCC(=O)NC4=O)C5=O)CC3)cc2)N1C(=O)CCl (stereo partly specified)
Activity [1]: 57%
IC50 at 24 h [7]: 205 nM
Activity [8]: Active
Ratio IC50 (HT-1080 [9]): 2
IC50 (HT-1080 [10]): 68 nM
Activity (HT-1080 [11]): inactive
Ratio IC50 (HT-1080 [12]): 6
Activity [13]: inactive
Activity [14]: Active
DC50 [15]: 22.9 nM
Activity [16]: Active
Activity [6]: 69%
Activity [17]: Dose-Dependent Effect
DC50 [18]: 37.4 nM
Activity [19]: Active
Activity [20]: inactive
DC50 [21]: 17.9 nM

CCCC(=O)N1[C@@H](c2ccc(C(=O)OC)cc2)c2[nH]c3ccccc3c2C[C@@H]1C(=O)OC
Activity [3]: inactive

CCC(=O)N1[C@@H](c2ccc(C(=O)N3CCN(CCCCCCCCCCCCCNc4cccc5c4CN(C4CCC(=O)NC4=O)C5=O)CC3)cc2)c2[nH]c3ccccc3c2C[C@@H]1C(=O)OC (stereo partly specified)
Activity [3]: inactive

CCCCCC(=O)N1[C@@H](c2ccc(C(=O)OC)cc2)c2[nH]c3ccccc3c2C[C@@H]1C(=O)OC
Activity [3]: inactive

Cc1onc(C(=O)N2CCN(C(c3ccc(Cl)cc3)c3ccc(Cl)cc3)CC2)c1[N+](=O)[O-]
IC50 at 24 h [7]: 430 nM
IC50 (HT-1080 [10]): 410 nM

COC(=O)[C@H]1Cc2c([nH]c3ccccc23)[C@H](c2ccc(C(=O)N3CCN(CCCCCCCCCCCCCNc4cccc5c4C(=O)N(C4CCC(=O)NC4=O)C5=O)CC3)cc2)N1C(=O)CCl (stereo partly specified)
Activity [6]: 67%

COC(=O)[C@H]1Cc2c([nH]c3ccccc23)[C@H](c2ccc(C(=O)NCc3cn(CCOCCOCCOCCOCCNc4cccc5c4CN(C4CCC(=O)NC4=O)C5=O)nn3)cc2)N1C(=O)CCl (stereo partly specified)
Activity [2]: inactive

COC(=O)[C@H]1Cc2c([nH]c3ccccc23)[C@H](c2ccc(C(=O)N3CCN(CCCCCCCCCNc4cccc5c4CN(C4CCC(=O)NC4=O)C5=O)CC3)cc2)N1C(=O)CCl (stereo partly specified)
Activity [6]: 48%

COC(=O)[C@H]1Cc2c([nH]c3ccccc23)[C@H](c2ccc(C(=O)N3CCN(CCCCCCCCCCCNc4cccc5c4C(=O)N(C4CCC(=O)NC4=O)C5=O)CC3)cc2)N1C(=O)CCl (stereo partly specified)
Activity [6]: 46%

COC(=O)[C@H]1Cc2c([nH]c3ccccc23)[C@H](c2ccc(C(=O)N3CCC(CN4CCN(CCCNc5cccc6c5C(=O)N(C5CCC(=O)NC5=O)C6=O)CC4)CC3)cc2)N1C(=O)CCl (stereo partly specified)
Activity [1]: 3%

COC(=O)[C@H]1Cc2c([nH]c3ccccc23)[C@H](c2ccc(C(=O)NCc3cn(CCOCCOCCNc4cccc5c4CN(C4CCC(=O)NC4=O)C5=O)nn3)cc2)N1C(=O)CCl (stereo partly specified)
Activity [2]: inactive

COC(=O)[C@H]1Cc2c([nH]c3ccccc23)[C@H](c2ccc(C(=O)N3CCN(CCCCCCCCCCCCNc4cccc5c4C(=O)N(C4CCC(=O)NC4=O)C5=O)CC3)cc2)N1C(=O)CCl (stereo partly specified)
Activity [6]: 56%

COC(=O)[C@H]1Cc2c([nH]c3ccccc23)[C@H](c2ccc(C(=O)NCc3cn(CCOCCOCCN[C@H](C(=O)N4C[C@H](O)C[C@H]4C(=O)N[C@@H](C)c4ccc(-c5scnc5C)cc4)C(C)(C)C)nn3)cc2)N1C(=O)CCl
Activity [2]: 49%

COC(=O)[C@H]1Cc2c([nH]c3ccccc23)[C@H](c2ccc(C(=O)NCc3cn(CCOCCOCCOCCNc4cccc5c4C(=O)N(C4CCC(=O)NC4=O)C5=O)nn3)cc2)N1C(=O)CCl (stereo partly specified)
Activity [2]: 22%

COC(=O)[C@H]1Cc2c([nH]c3ccccc23)[C@H](c2ccc(C(=O)N3CCN(CCCCCCCNc4cccc5c4CN(C4CCC(=O)NC4=O)C5=O)CC3)cc2)N1C(=O)CCl (stereo partly specified)
Activity [6]: 10%

COC(=O)[C@H]1Cc2c([nH]c3ccccc23)[C@H](c2ccc(C(=O)NCc3cn(CCOCCOCCOCCOCCOCCNc4cccc5c4CN(C4CCC(=O)NC4=O)C5=O)nn3)cc2)N1C(=O)CCl (stereo partly specified)
Activity [2]: inactive

COC(=O)[C@H]1Cc2c([nH]c3ccccc23)[C@H](c2ccc(C(=O)NCc3cn(CCOCCOCCNc4cccc5c4C(=O)N(C4CCC(=O)NC4=O)C5=O)nn3)cc2)N1C(=O)CCl (stereo partly specified)
Activity [2]: 32%

COC(=O)[C@H]1Cc2c([nH]c3ccccc23)[C@H](c2ccc(C(=O)N3CCN(CCCCCCCCCCCCNc4cccc5c4CN(C4CCC(=O)NC4=O)C5=O)CC3)cc2)N1C(=O)CCl (stereo partly specified)
Activity [6]: 68%

COC(=O)[C@H]1Cc2c([nH]c3ccccc23)[C@H](c2ccc(C(=O)NCc3cn(CCOCCOCCOCCOCCOCCN[C@H](C(=O)N4C[C@H](O)C[C@H]4C(=O)N[C@@H](C)c4ccc(-c5scnc5C)cc4)C(C)(C)C)nn3)cc2)N1C(=O)CCl
Activity [2]: 11%

COC(=O)[C@H]1Cc2c([nH]c3ccccc23)[C@H](c2ccc(C(=O)N3CCN(CCCCCCCCCCCCCCNc4cccc5c4C(=O)N(C4CCC(=O)NC4=O)C5=O)CC3)cc2)N1C(=O)CCl (stereo partly specified)
Activity [6]: 44%

COC(=O)[C@H]1Cc2c([nH]c3ccccc23)[C@H](c2ccc(C(=O)N3CCN(CCCCCCCCCCCCCCNc4cccc5c4CN(C4CCC(=O)NC4=O)C5=O)CC3)cc2)N1C(=O)CCl (stereo partly specified)
Activity [6]: 58%

COC(=O)[C@H]1Cc2c([nH]c3ccccc23)[C@H](c2ccc(C(=O)N3CCC(N4CCN(CCCCCCCCCNc5cccc6c5CN(C5CCC(=O)NC5=O)C6=O)CC4)CC3)cc2)N1C(=O)CCl (stereo partly specified)
Activity [1]: 15%

CCC(=O)N1[C@@H](c2ccc(C(=O)OC)cc2)c2[nH]c3ccccc3c2C[C@@H]1C(=O)OC
Activity [3]: inactive

Reference: ChEMBL document CHEMBL5321221, “Structure-activity relationship study of RSL3-based GPX4 degraders and its potential noncovalent optimization” (Eur J Med Chem, 2023)
